Assay results published in patent US10167302B2, “Phosphonate nucleosides useful in the treatment of viral diseases” (University College Cork, priority 2014, dated 2019).
Like-named read-outs stand apart in the source and are kept apart here.

Tests used:
HIV-1 RT = target: T1, HIV-1 RT (Human immunodeficiency virus type 1 group M subtype B, UniProt P04585); test: HIV-1 RT assay in the presence of artificial template/primer; assay type: biochemical
T1 construct: HIV-1 RT Assays in the Presence of Artificial Template/Primer
Description: HIV-1 RT Assays in the Presence of Artificial Template/Primer
To prepare the template/primers for the RT experiments, 0.15 mM poly(U), poly(A), and poly(I) were mixed with an equal volume of 0.0375 mM oligo(dA), oligo(dT), and oligo(dC), respectively. The final concentrations of the templates in the RT reaction mixture were 0.015 mM. The reaction mixture (50 μl) contained 50 mM Tris.HCl (pH 7.8), 5 mM dithiothreitol, 300 mM glutathione, 500 μM EDTA, 150 mM KCl, 5 mM MgCl2, 1.25 μg of bovine serum albumin, an appropriate concentration of labeled (tritiated) substrate dTTP, dCTP, or dATP (2 μCi/assay), a fixed concentration of the template/primer poly(A).oligo(dT) (0.015 mM), poly(I).oligo(dC) (0.015 mM), and poly(U).oligo(dA) (0.015 mM), 0.06% Triton X-100, 10 μl of inhibitor solution (containing various concentrations of the compounds), and 1 μl of the RT preparation. The reaction mixtures were incubated at 37° C. for 30 min, at which time 100 μl of yeast RNA (1 mg/ml) and 1 ml of Na4P2O7 (0.02 M) in trichloroacetic acid (5% v/v) were added. The solutions were kept on ice for 30 min, after which the acid-insoluble material was washed and analyzed for radioactivity.

HSV-1 DNA pol = HSV-1 DNA pol (Human herpesvirus 1, UniProt P04293); test: HSV-1 DNA polymerase activity, calf thymus DNA as template primer; assay type: biochemical; conditions: [3H]dTTP incorporation, all four dNTPs
Description: (§1) The HCMV and HSV-1 DNA polymerase activity was measured in the presence of calf thymus DNA as template primer, and all four dNTPs as the nucleotide substrates of which dTTP was tritiated.

HCMV DNA pol = HCMV DNA pol (Human cytomegalovirus, UniProt P08546); test: HCMV DNA polymerase activity, calf thymus DNA as template primer; assay type: biochemical; conditions: [3H]dTTP incorporation, all four dNTPs
Description: as §1

[1] = values marked *: in poly rA.dT/dTTP RT assay, read-out: IC50 HIV-1 RT

Chain of HCMV DNA pol (P08546 whole entry): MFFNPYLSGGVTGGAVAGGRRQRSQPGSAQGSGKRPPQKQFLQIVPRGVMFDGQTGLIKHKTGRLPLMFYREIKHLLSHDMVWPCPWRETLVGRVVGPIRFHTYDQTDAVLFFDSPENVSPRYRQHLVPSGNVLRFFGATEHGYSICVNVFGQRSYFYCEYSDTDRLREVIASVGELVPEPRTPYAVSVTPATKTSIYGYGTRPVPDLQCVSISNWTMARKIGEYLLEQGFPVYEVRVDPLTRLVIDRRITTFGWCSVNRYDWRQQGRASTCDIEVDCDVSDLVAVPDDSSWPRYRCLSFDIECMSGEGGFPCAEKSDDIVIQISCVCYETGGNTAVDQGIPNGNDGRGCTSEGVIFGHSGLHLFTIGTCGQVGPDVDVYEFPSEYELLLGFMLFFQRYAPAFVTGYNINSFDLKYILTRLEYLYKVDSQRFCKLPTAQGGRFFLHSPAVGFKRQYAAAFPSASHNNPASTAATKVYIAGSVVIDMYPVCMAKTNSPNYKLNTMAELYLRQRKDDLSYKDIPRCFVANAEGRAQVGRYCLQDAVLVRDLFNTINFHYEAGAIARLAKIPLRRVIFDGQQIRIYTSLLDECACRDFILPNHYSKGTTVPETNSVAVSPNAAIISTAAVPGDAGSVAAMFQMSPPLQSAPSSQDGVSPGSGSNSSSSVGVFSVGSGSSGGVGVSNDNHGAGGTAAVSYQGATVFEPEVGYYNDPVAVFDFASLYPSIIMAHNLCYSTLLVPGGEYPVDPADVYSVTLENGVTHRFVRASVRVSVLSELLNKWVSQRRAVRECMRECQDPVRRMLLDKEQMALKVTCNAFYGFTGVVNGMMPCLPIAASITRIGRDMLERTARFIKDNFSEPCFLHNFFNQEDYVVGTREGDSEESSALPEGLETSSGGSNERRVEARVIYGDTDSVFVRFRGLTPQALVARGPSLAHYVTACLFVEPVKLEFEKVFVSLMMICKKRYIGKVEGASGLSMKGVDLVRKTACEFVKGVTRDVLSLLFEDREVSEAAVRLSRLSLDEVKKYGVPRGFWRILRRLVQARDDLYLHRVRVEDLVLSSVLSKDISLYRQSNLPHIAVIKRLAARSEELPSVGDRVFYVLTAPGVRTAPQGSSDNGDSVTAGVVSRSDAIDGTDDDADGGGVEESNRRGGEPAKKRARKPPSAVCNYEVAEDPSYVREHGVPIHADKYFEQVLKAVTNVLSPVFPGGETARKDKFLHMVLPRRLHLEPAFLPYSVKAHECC
Chain of HSV-1 DNA pol (P04293 whole entry): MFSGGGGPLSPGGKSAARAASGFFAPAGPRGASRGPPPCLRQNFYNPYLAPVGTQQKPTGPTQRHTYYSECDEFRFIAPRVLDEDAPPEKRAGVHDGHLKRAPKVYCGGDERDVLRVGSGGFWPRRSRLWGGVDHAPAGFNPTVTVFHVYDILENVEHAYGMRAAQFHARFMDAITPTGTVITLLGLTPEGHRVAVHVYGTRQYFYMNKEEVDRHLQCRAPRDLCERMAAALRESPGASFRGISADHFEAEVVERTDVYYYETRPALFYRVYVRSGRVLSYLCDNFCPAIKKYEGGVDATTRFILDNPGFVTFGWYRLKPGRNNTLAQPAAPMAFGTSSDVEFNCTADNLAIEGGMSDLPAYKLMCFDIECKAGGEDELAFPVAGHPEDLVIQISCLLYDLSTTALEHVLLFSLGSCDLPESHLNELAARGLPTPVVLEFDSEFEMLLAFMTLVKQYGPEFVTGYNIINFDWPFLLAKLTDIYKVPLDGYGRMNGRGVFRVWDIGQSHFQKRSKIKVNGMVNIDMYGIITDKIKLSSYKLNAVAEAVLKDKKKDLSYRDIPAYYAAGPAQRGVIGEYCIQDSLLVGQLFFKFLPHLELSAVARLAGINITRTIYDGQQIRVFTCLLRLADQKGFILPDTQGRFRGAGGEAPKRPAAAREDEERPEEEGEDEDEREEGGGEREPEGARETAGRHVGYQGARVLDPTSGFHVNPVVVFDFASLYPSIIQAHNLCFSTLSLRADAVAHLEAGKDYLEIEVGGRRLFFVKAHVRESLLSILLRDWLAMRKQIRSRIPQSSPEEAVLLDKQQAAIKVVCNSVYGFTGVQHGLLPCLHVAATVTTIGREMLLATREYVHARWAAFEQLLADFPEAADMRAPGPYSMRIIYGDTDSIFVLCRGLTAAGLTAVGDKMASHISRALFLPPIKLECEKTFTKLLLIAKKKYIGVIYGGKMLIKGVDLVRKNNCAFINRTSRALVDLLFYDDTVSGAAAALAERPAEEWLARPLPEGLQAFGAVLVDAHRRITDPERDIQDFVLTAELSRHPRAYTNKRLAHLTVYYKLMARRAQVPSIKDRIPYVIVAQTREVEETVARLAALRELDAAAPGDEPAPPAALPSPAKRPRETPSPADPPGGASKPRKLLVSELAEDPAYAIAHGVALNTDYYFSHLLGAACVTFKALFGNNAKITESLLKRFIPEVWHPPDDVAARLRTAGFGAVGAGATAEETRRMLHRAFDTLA

Work on `Cc1cn(CCOC(C(=O)O)P(=O)(O)O)c(=O)[nH]c1=O` (stereo not drawn) [Compound 8a, 2-(2-(5-Methyl-2,4-dioxo-3,4-dihydropyrimidin-1(2H)-yl)ethoxy)-2-phosphonoacetic acid] yielded an IC50 (HIV-1 RT) of 17 µM, an IC50 (HSV-1 DNA pol) of 19 µM and an IC50 (HCMV DNA pol) of 161 ± 8 µM.
In the case of `Cc1cn(CC(C)OC(C(=O)O)P(=O)(O)O)c(=O)[nH]c1=O` (stereo not drawn) [Compound 8b, 2-((1-(5-Methyl-2,4-dioxo-3,4-dihydropyrimidin-1(2H)-yl)propan-2-yl)oxy)-2-phosphonoacetic acid], the IC50 (HIV-1 RT) is reported as 18 µM, the IC50 (HSV-1 DNA pol) is reported as 12 µM and the IC50 (HCMV DNA pol) is reported as 111 ± 24 µM.
Compound `Cc1cn(C(C)COC(C(=O)O)P(=O)(O)O)c(=O)[nH]c1=O` (stereo not drawn) [Compound 8c, 2-(2-(5-Methyl-2,4-dioxo-3,4-dihydropyrimidin-1(2H)-yl)propoxy)-2-phosphonoacetic acid] has an IC50 (HIV-1 RT) of 133 ± 16 µM, an IC50 (HSV-1 DNA pol) of 16 µM and an IC50 (HCMV DNA pol) greater than 200 µM.
With `Cc1cn(C/C=C\COC(C(=O)O)P(=O)(O)O)c(=O)[nH]c1=O` (stereo not drawn) [Compound 13a, cis-2-(4-(2,4-Dioxo-5-methyl-pyrimidin-1-yl)but-2-enyloxy)-2-phosphonoacetic acid] the IC50 (HIV-1 RT) was 235 ± 16 µM, the IC50 (HSV-1 DNA pol) was 20 µM and the IC50 (HCMV DNA pol) was 2.1 ± 0.6 µM.
Compound `Cc1cn(CC#CCOC(C(=O)O)P(=O)(O)O)c(=O)[nH]c1=O` (stereo not drawn) [Compound 13b, 2-(4-(2,4-Dioxo-5-methyl-pyrimidin-1-yl)but-2-ynyloxy)-2-phosphonoacetic acid] has an IC50 (HIV-1 RT) greater than 500 µM and an IC50 (HCMV DNA pol) greater than 500 µM.
Compound `Cc1cn(C[C@H]2C[C@H]2COC(C(=O)O)P(=O)(O)O)c(=O)[nH]c1=O` (stereo partly drawn) [Compound 13c] has an IC50 (HIV-1 RT) of 440 ± 85 µM, an IC50 (HSV-1 DNA pol) of 35 µM and an IC50 (HCMV DNA pol) of 4.6 ± 0.2 µM.
With `Cc1cn(C[C@H]2CCC[C@H]2COC(C(=O)O)P(=O)(O)O)c(=O)[nH]c1=O` (stereo partly drawn) [Compound 13d] the IC50 (HIV-1 RT) was no less than 500 µM, the IC50 (HSV-1 DNA pol) was 34 µM and the IC50 (HCMV DNA pol) was 40 ± 25 µM.
In the case of `Cc1cn(C[C@H]2CC=CC[C@H]2COC(C(=O)O)P(=O)(O)O)c(=O)[nH]c1=O` (stereo partly drawn) [Compound 13e], the IC50 (HIV-1 RT) is reported as 425 ± 106 µM, the IC50 (HSV-1 DNA pol) is reported as 16 µM and the IC50 (HCMV DNA pol) is reported as 3 ± 0.5 µM.
In the case of `Cc1cn(C[C@H]2C3C=CC(C3)[C@H]2COC(C(=O)O)P(=O)(O)O)c(=O)[nH]c1=O` (stereo partly drawn) [Compound 13f], the IC50 (HIV-1 RT) is reported as 340 ± 139 µM, the IC50 (HSV-1 DNA pol) is reported as 32 µM and the IC50 (HCMV DNA pol) is reported as 14 ± 2 µM.
`Cc1cn(Cc2ccccc2COC(C(=O)O)P(=O)(O)O)c(=O)[nH]c1=O` (stereo not drawn) [Compound 13g, 2-(2-((2,4-Dioxo-5-methyl-pyrimidin-1-yl)methyl)benzyloxy)-2-phosphonoacetic acid] gave an IC50 (HIV-1 RT) of 131 ± 86 µM, an IC50 (HSV-1 DNA pol) of 11 µM and an IC50 (HCMV DNA pol) of 13 ± 4 µM.
Compound `Cc1cn(CCCCOC(C(=O)O)P(=O)(O)O)c(=O)[nH]c1=O` (stereo not drawn) [Compound 13h, 2-(4-(2,4-Dioxo-5-methyl-pyrimidin-1-yl)butyloxy)-2-phosphonoacetic acid] has an IC50 (HIV-1 RT) of 145 ± 106 µM, an IC50 (HSV-1 DNA pol) of 56 µM and an IC50 (HCMV DNA pol) of 29 ± 3 µM.
In the case of `Cc1cn(C[C@H]2CCCC[C@H]2COC(C(=O)O)P(=O)(O)O)c(=O)[nH]c1=O` (stereo partly drawn) [Compound 13i], the IC50 (HIV-1 RT) is reported as no less than 500 µM, the IC50 (HSV-1 DNA pol) is reported as 13 µM and the IC50 (HCMV DNA pol) is reported as 4 µM.
`COC(=O)C(OC[C@@H]1CCCC[C@@H]1Cn1cc(C)c(=O)[nH]c1=O)P(=O)(O)O` (stereo partly drawn) [Compound 13j] gave an IC50 (HIV-1 RT) of no less than 500 µM, an IC50 (HSV-1 DNA pol) of 43 µM and an IC50 (HCMV DNA pol) of 16 ± 3 µM.
Compound `O=C(O)C(OC/C=C\Cn1cc(F)c(=O)[nH]c1=O)P(=O)(O)O` (stereo not drawn) [Compound 13k, 2-Cis-(4-(5-fluoro-2,4-dioxo-3,4-dihydropyrimidin-1(2H)-yl)but-2-enyloxy)-2-phosphonoacetic acid] has an IC50 (HIV-1 RT; [1]) greater than 500 µM.
For `O=C(O)C(OCCCCn1cc(F)c(=O)[nH]c1=O)P(=O)(O)O` (stereo not drawn) [Compound 13l, 2-(4-(5-fluoro-2,4-dioxo-3,4-dihydropyrimidin-1(2H)-yl)butoxy)-2-phosphonoacetic acid], the IC50 (HIV-1 RT; [1]) was 214 µM.
Compound `Nc1ncnc2c1ncn2C/C=C\COC(C(=O)O)P(=O)(O)O` (stereo not drawn) [Compound 13m, 2-Cis-(4-(6-amino-9H-purin-9-yl)but-2-enyloxy)-2-phosphonoacetic acid] has an IC50 (HIV-1 RT; [1]) of 426 µM.
With `Nc1nc(Cl)c2ncn(C/C=C\COC(C(=O)O)P(=O)(O)O)c2n1` (stereo not drawn) [Compound 13n, 2-Cis-(4-(2-amino-6-chloro-9H-purin-9-yl)but-2-enyloxy)-2-phosphonoacetic acid] the IC50 (HIV-1 RT; [1]) was no less than 500 µM.
With `Nc1ccn(C/C=C\COC(C(=O)O)P(=O)(O)O)c(=O)n1` (stereo not drawn) [Compound 13o, 2-Cis-(4-(4-amino-2-oxopyrimidin-1(2H)-yl)but-2-enyloxy)-2-phosphonoacetic acid] the IC50 (HIV-1 RT; [1]) was 246 µM.
`Cc1cn(Cc2cn(CCOC(C(=O)O)P(=O)(O)O)nn2)c(=O)[nH]c1=O` (stereo not drawn) [JJ-210, 2-(2-(4-((5-methyl-2,4-dioxo-3,4-dihydropyrimidin-1(2H)-yl)methyl)-1H-1,2,3-triazol-1-yl)ethoxy)-2-phosphonoacetic acid] showed a melting point of 189 to 191 °C.
Work on `Cc1cn(C[C@@H](O)[C@@H](O)COC(C(=O)O)P(=O)(O)O)c(=O)[nH]c1=O` (stereo partly drawn) [JJ-379] yielded a melting point of 199 to 201 °C.
